Measurements reported in patent US20110225663A1, “METHOD FOR PRODUCING EUKARYOTIC ORGANISMS WITH ENHANCED PATHOGEN RESISTANCE AND/OR RESISTANCE TO STRESS AND EUKARYOTIC TRANSGENIC ORGANISMS WITH ENHANCED PATHOGEN RESISTANCE AND/OR RESISTANCE TO STRESS” (WESTFAELISCHE WILHELMS-UNIVERSITAET MUENSTER, priority 2008, published 2011).

Assays:
NADPH oxidase = test system: NADPH oxidase
Text: This leads to the formation of hypersensitive lesions in leaf tissue of resistant varieties after pathogen infection (incompatible interaction).

G6PDH = experiment: Inhibitor study with Glucosamine-6-P in tobacco leaves infected with P. nicotianae; type: in vivo
Text: The involvement of the oxidative pentose phosphate pathway (OPPP) in the oxidative burst of plants was shown by inhibitor studies with Glucosamine-6 phosphate (Glucosamine-6-P). This is a well-known competitive inhibitor for G6PDH (as described in Glaser B L and Brown D H: Purification and properties of D-glucose 6-phosphate dehydrogenase, J Biol Chem 216, pp 67-79 (1955)), the first enzyme of the OPPP, which transforms G6P into 6-phosphogluconolactone.
Hydrogen peroxide (H2O2) accumulation was detected by in situ staining with 3,3-diaminobenzidine (DAB) following a modified protocol of Thordal-Christensen H, Zhang Z G, Wei Y D, Collinge D B: Subcellular localization of H2O2 in plants: H2O2 accumulation in papillae and hypersensitive response during the barley-powdery mildew interaction, Plant J 11, pp 1187-1194 (1997). Leaves were placed in DAB solution (1 mg mL^−1, pH 3.8) for 6 h. A dark-brown polymerization product formed at sites where DAB reacts with H2O2 produced by the tissue. Incubations were stopped and leaf tissue was simultaneously cleared from chlorophyll by boiling in ethanol for 10 min.

[1] = test system: Arabidopsis glucose-6-phosphate dehydrogenase P2 (At1g24280), recombinant enzyme with C-terminal Strep-tag; conditions: cited from earlier work
[2] = biological target: Arabidopsis thaliana glucose-6-phosphate dehydrogenase isoform At1g24280 (P2 class), N-terminally truncated without transit peptide (cP2, 5′ delta 195 bp) (Arabidopsis thaliana, UniProt Q8L743); experiment: biochemical
[3] = FIG. 2 bottom, infiltrated tobacco leaf

Chain of Arabidopsis thaliana glucose-6-phosphate dehydrogenase isoform At1g24280 (P2 class), N-terminally truncated without transit peptide (cP2, 5′ delta 195 bp) (Q8L743 67-599): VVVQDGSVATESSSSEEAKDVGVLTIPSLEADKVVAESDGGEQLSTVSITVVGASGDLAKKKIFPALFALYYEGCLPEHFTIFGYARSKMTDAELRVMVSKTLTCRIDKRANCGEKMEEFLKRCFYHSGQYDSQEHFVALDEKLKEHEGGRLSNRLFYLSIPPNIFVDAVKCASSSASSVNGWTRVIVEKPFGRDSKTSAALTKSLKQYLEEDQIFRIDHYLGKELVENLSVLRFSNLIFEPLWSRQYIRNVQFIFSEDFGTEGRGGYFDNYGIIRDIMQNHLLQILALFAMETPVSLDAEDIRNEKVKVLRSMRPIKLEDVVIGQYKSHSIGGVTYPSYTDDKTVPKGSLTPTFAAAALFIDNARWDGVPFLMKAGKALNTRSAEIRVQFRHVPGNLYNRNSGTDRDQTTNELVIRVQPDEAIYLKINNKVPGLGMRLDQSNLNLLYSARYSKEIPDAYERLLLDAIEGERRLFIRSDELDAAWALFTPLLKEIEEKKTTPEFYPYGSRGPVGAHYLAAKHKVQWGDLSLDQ

c1ccc2c(c1)[I+]c1ccccc1-2 [DPI, diphenylene iodonium]
defence-induced H2O2 production (DAB-staining) and formation of hypersensitive lesions (NADPH oxidase; [3]): Interference | formation of hypersensitive lesions after infection with P. nicotianae (NADPH oxidase; tobacco leaves treated with 25-100 mM DPI): did not induce the formation of hypersensitive lesions

N[C@@H]1[C@@H](O)[C@H](O)[C@@H](COP(=O)(O)O)O[C@@H]1O [GN6P, Glucosamine-6 phosphate]
defence-induced H2O2 production (DAB-staining) and formation of hypersensitive lesions (G6PDH; [3]): Interference | ROS production after infection with P. nicotianae (G6PDH; tobacco leaves treated with 25-50 mM GN6P): did not result in detectable ROS production

NC(=O)c1ccc[n+]([C@@H]2O[C@H](COP(=O)(O)OP(=O)(O)OC[C@H]3O[C@@H](n4cnc5c(N)ncnc54)[C@H](OP(=O)(O)O)[C@@H]3O)[C@@H](O)[C@H]2O)c1 [NADP+, nicotinamide-dinucleotide phosphate, oxidized form]
Km ([1]; read-out: Km[NADP+], Wakao and Benning (2005)): 17 µM

NC(=O)C1=CN([C@@H]2O[C@H](COP(=O)(O)OP(=O)(O)OC[C@H]3O[C@@H](n4cnc5c(N)ncnc54)[C@H](OP(=O)(O)O)[C@@H]3O)[C@@H](O)[C@H]2O)C=CC1 [NADPH, nicotinamide-dinucleotide phosphate, reduced form]
Ki [2]: 4.6 µM | Ki ([1]; Wakao and Benning (2005), read-out: Ki[NADPH]): 22 µM
